Laboratory results taken from patent publication US20020137929A1, “1 - (3-heterocyclylphenyl) isothiourea, -isourea, -guanidine and -amidine herbicidal agents” (Intellectual Property Department, BASF Aktiengesellschaft, priority 1998, published 2002).

Legend:
ABUTH (Velvetleaf) = assay: Postemergence herbicidal evaluation; format: in vivo, Abutilon theophrasti; settings: postemergence
In short: (§1)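 Each compound, dispersed in an acetone/water mix (50/50) carrying 0.5% TWEEN 20, is nozzle-sprayed at 40 psi on approximately two-week-old seedlings at about 0.0156–0.500 kg/ha. Plants are assessed 4–5 weeks afterward on a 0–9 scale relative to control; duplicate tests are averaged.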

[1] = system: IPOHE (Morningglory, Ivyleaf); assay: Postemergence herbicidal evaluation; format: in vivo, Ipomoea hederacea; settings: postemergence
In short: as §1

[2] = system: TRZAWR (Wheat, Winter, cv Riband); assay: Postemergence herbicidal evaluation; format: in vivo, Triticum aestivum; settings: postemergence
In short: as §1

[3] = system: CHEAL (Lambsquarters, Common); assay: Preemergence herbicidal evaluation; format: in vivo, Chenopodium album; settings: rated 4-5 weeks after treatment
In short: (§2)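 Preemergence soil application of compound, sprayed in aqueous acetone at rates equivalent to about 0.0156 to 0.500 kg per hectare onto freshly sown cups. Plant response was judged by eye on a 0-9 scale four to five weeks later.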

[4] = system: IPOHE (Morningglory, Ivyleaf); assay: Preemergence herbicidal evaluation; format: in vivo, Ipomoea hederacea; settings: rated 4-5 weeks after treatment
In short: as §2

ECHCG (Barnyardgrass) = assay: Preemergence herbicidal evaluation; format: in vivo, Echinochloa crus-galli; settings: rated 4-5 weeks after treatment
In short: as §2

SETVI (Foxtail, Green) = assay: Preemergence herbicidal evaluation; format: in vivo, Setaria viridis; settings: rated 4-5 weeks after treatment
In short: as §2

ORYSAT (Rice, Tebonnet) = assay: Preemergence herbicidal evaluation; format: in vivo, Oryza sativa, (L.) Tebonnet; settings: rated 4-5 weeks after treatment
In short: as §2

[5] = system: TRZAWR (Wheat, Winter, cv Riband); assay: Preemergence herbicidal evaluation; format: in vivo, Triticum aestivum; settings: rated 4-5 weeks after treatment
In short: as §2

[6] = system: ECHORC (Watergrass (Calif.)); assay: Preemergence weed control under flooded paddy conditions; format: in vivo, Echinochloa oryzoides; settings: rated 3-4 weeks after treatment
In short: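 Silt loam, seeds in top 0.5 cm; flood held 1.5-3 cm; test cpd as acetone/water 50/50 into flood water, ~0.0313-0.500 kg/ha a.i.; greenhouse 3-4 wk; visual 0-9 score vs control.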

[7] = system: ECHORC (Watergrass (Calif.)); assay: Postemergence weed control under flooded paddy conditions; format: in vivo, Echinochloa oryzoides; settings: postemergence weeds, rated 3 to 4 weeks after treatment
In short: (§3)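 Weeds 3 to 5 cm tall and rice seedlings at the 1.5 to 2.5 leaf stage were flooded, with water held 1.5 to 3 cm above the soil. Compounds in 50/50 v/v aqueous/acetone went into the flood water at about 0.0313 to 0.500 kg/ha. Visual 0-9 ratings versus control were made 3 to 4 weeks later.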

CYPIR (Rice Flatsedge) = assay: as above; format: in vivo, Cyperus iria; settings: postemergence weeds, rated 3 to 4 weeks after treatment
In short: as §3

**Q.** Which results are given for CC(C)C[C@@H](C(=O)O)N1C(=O)CSC1=Nc1cc(-n2c(=O)cc(C(F)(F)F)n(C)c2=O)c(F)cc1Cl [Compound 71, α-Isobutyl-2-{{2-chloro-5-[3,6-dihydro-3-methyl-2,6-dioxo-4-(trifluoromethyl)-1(2H)-pyrimidinyl]-4-fluorophenyl}imino}-4-oxo-3-thiazolidineacetic acid, L-]?
**A.** ABUTH herbicidal rating (ABUTH (Velvetleaf); rate 0.0158 kg/ha): 9.0; ABUTH herbicidal rating (ABUTH (Velvetleaf); rate 0.0315 kg/ha): 9.0; ABUTH herbicidal rating (ABUTH (Velvetleaf); rate 0.0630 kg/ha): 9.0; IPOHE herbicidal rating ([1]; rate 0.0158 kg/ha): 9.0; IPOHE herbicidal rating ([1]; rate 0.0315 kg/ha): 9.0; IPOHE herbicidal rating ([1]; rate 0.0630 kg/ha): 9.0; TRZAWR herbicidal rating ([2]; rate 0.0158 kg/ha): 2.5; TRZAWR herbicidal rating ([2]; rate 0.0315 kg/ha): 3.5; TRZAWR herbicidal rating ([2]; rate 0.0630 kg/ha): 4.5; Preemergence herbicidal rating CHEAL ([3]; rate 0.0156 kg/ha): 3.0; Preemergence herbicidal rating CHEAL ([3]; rate 0.0313 kg/ha): 9.0; Preemergence herbicidal rating CHEAL ([3]; rate 0.0625 kg/ha): 9.0; Preemergence herbicidal rating CHEAL ([3]; rate 0.1250 kg/ha): 9.0; Preemergence herbicidal rating CHEAL ([3]; rate 0.2500 kg/ha): 9.0; Preemergence herbicidal rating IPOHE ([4]; rate 0.0156 kg/ha): 0.0; Preemergence herbicidal rating IPOHE ([4]; rate 0.0313 kg/ha): 0.0; Preemergence herbicidal rating IPOHE ([4]; rate 0.0625 kg/ha): 0.0; Preemergence herbicidal rating IPOHE ([4]; rate 0.1250 kg/ha): 9.0; Preemergence herbicidal rating IPOHE ([4]; rate 0.2500 kg/ha): 9.0; Preemergence herbicidal rating ECHCG (ECHCG (Barnyardgrass); rate 0.0156 kg/ha): 0.0; Preemergence herbicidal rating ECHCG (ECHCG (Barnyardgrass); rate 0.0313 kg/ha): 0.0; Preemergence herbicidal rating ECHCG (ECHCG (Barnyardgrass); rate 0.0625 kg/ha): 0.0; Preemergence herbicidal rating ECHCG (ECHCG (Barnyardgrass); rate 0.1250 kg/ha): 2.0; Preemergence herbicidal rating ECHCG (ECHCG (Barnyardgrass); rate 0.2500 kg/ha): 4.0; Preemergence herbicidal rating SETVI (SETVI (Foxtail, Green); rate 0.0156 kg/ha): 0.0; Preemergence herbicidal rating SETVI (SETVI (Foxtail, Green); rate 0.0313 kg/ha): 0.0; Preemergence herbicidal rating SETVI (SETVI (Foxtail, Green); rate 0.0625 kg/ha): 0.0; Preemergence herbicidal rating SETVI (SETVI (Foxtail, Green); rate 0.1250 kg/ha): 4.0; Preemergence herbicidal rating SETVI (SETVI (Foxtail, Green); rate 0.2500 kg/ha): 9.0; Preemergence herbicidal rating ORYSAT (ORYSAT (Rice, Tebonnet); rate 0.0156 kg/ha): 0.0; Preemergence herbicidal rating ORYSAT (ORYSAT (Rice, Tebonnet); rate 0.0313 kg/ha): 0.0; Preemergence herbicidal rating ORYSAT (ORYSAT (Rice, Tebonnet); rate 0.0625 kg/ha): 0.0; Preemergence herbicidal rating ORYSAT (ORYSAT (Rice, Tebonnet); rate 0.1250 kg/ha): 1.0; Preemergence herbicidal rating ORYSAT (ORYSAT (Rice, Tebonnet); rate 0.2500 kg/ha): 3.0; Preemergence herbicidal rating TRZAWR ([5]; rate 0.0156 kg/ha): 0.0; Preemergence herbicidal rating TRZAWR ([5]; rate 0.0313 kg/ha): 0.0; Preemergence herbicidal rating TRZAWR ([5]; rate 0.0625 kg/ha): 0.0; Preemergence herbicidal rating TRZAWR ([5]; rate 0.1250 kg/ha): 1.0; Preemergence herbicidal rating TRZAWR ([5]; rate 0.2500 kg/ha): 3.0; ECHORC herbicidal effect rating ([6]; 0.1250 kg/ha): 0.0; ECHORC herbicidal effect rating ([6]; 0.2500 kg/ha): 7.0; Herbicidal rating ECHORC ([7]; Rate 0.1250 kg/ha): 0.0; Herbicidal rating ECHORC ([7]; Rate 0.2500 kg/ha): 7.0; Herbicidal rating CYPIR (CYPIR (Rice Flatsedge); Rate 0.1250 kg/ha): 3.0; Herbicidal rating CYPIR (CYPIR (Rice Flatsedge); Rate 0.2500 kg/ha): 7.0
